The record followed here is patent publication US7863271B2, “2-aminobenzoxazole carboxamides as 5HT3 modulators” (Albany Molecular Research, Inc., priority 2006, dated 2011).

Where a name gives a salt, the structure may show the parent alone.

For this assay, the target named is T1, 5-HT3 (Homo sapiens, UniProt P46098).
T1 sequence (P46098 24-478): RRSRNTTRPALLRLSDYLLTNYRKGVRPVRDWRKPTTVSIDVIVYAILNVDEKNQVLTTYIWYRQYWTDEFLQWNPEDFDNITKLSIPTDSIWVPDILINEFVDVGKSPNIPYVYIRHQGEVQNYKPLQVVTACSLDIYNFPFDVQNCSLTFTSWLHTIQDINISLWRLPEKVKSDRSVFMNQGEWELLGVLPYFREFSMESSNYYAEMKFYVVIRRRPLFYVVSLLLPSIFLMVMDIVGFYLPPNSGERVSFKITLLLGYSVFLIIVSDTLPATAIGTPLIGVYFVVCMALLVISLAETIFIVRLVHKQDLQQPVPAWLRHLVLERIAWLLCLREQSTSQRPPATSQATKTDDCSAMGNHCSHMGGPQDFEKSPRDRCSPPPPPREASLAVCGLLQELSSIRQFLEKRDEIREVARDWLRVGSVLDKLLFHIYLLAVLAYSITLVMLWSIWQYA
The assay is described as follows: Compound affinity for the human 5-HT3 receptor (Assay B), SPA radioligand binding with [9-methyl-3H]BRL-43694. Further details: purchased Perkin Elmer. The following applies: Assay B (method B unless otherwise annotated); read-out: 5-HT3 Ki. The procedure, abridged: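 Ten competitor concentrations in duplicate; specific binding (total minus nonspecific) fitted for IC50, converted to Ki by Cheng-Prusoff.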
One may read the Ki as a measure of affinity in units of concentration, obtained from inhibition or displacement. Consider `C[C@H]1CN(C)C(=O)[C@H](C)N1c1nc2c(C(=O)NC3CN4CCC3CC4)cccc2o1` (stereo partly drawn) [Example 124, N-(Quinuclidine-8-yl)-2-((2S,6S)-2,4,6-trimethyl-3-oxopiperazine-1-yl)benzoxazole-4-carboxamide Hydrochloride], for which the Ki is 17.7 nM.

With `CC(=O)N1C[C@H](C)N(c2nc3c(C(=O)NC4CC5CCCC(C4)N5C)cccc3o2)[C@@H](C)C1` (stereo partly drawn) [Example 110, Endo-N-(9-Methyl-9-azabicyclo[3.3.1]nonan-3-yl)-2-((2S,6S)-4-acetyl-2,6-dimethylpiperazin-1-yl)benzoxazole-4-carboxamide Hydrochloride], the Ki was found to be 2.2 nM.

On to `CC[C@H]1COCCN1c1nc2c(C(=O)NC3CC4CCCC(C3)N4C)cccc2o1` (stereo partly drawn) [Example 36, Endo-N-(9-Methyl-9-azabicyclo[3.3.1]nonan-3-yl)-2-((S)-3-ethylmorpholine)benzoxazole-4-carboxamide Hydrochloride], for which the Ki is 4.7 nM.

On to `CN1[C@@H]2CCC[C@H]1C[C@@H](NC(=O)c1cccc3oc(N4CCC[C@H]4C(N)=O)nc13)C2` [Example 53, Endo-N-(9-Methyl-9-azabicyclo[3.3.1]non-3-yl)-2-((S)-2-carbamoylpyrrolidin-1-yl)benzoxazole-4-carboxamide Hydrochloride], for which the Ki was 212 nM.

On to `O=C(NC1CN2CCC1CC2)c1cccc2oc(NCC(F)(F)F)nc12` (centres unmarked) [Example 109, Hydrochloride], for which the inhibitory constant (Ki) stood at 47.9 nM.

Regarding `COCCCNc1nc2c(C(=O)NC3CC4CCCC(C3)N4C)cccc2o1` (stereo not drawn) [Example 39, Endo-N-(9-Methyl-9-azabicyclo[3.3.1]nonan-3-yl)-2-(3-methoxypropylamino)benzoxazole-4-carboxamide Hydrochloride], the Ki is 13.2 nM.

For `CC(C)C[C@H]1CN(c2nc3c(C(=O)NC4CC5CCCC(C4)N5C)cccc3o2)CCN1` (stereo partly drawn) [Example 74, Endo-N-(9-Methyl-9-azabicyclo[3.3.1]nonan-3-yl)-2-((3S)-3-isobutylpiperazine-1-yl)benzoxazole-4-carboxamide Hydrochloride], the Ki is 72.9 nM.

Turning to `CN1CCN(c2nc3c(C(=O)N[C@@H]4CN5CCC4CC5)cccc3o2)CC1` [Example 2, (S)—N-(quinuclidine-8-yl)-2-(4-methylpiperazin-1-yl)benzoxazole-4-carboxamide Dihydrochloride], the Ki was 382 nM.

With `CC[C@H]1CNCCN1c1nc2c(C(=O)NC3CC4CCCC(C3)N4C)cccc2o1` (stereo partly drawn) [Example 84, Endo-N-(9-Methyl-9-azabicyclo[3.3.1]nonan-3-yl)-2-((S)-2-ethylpiperazine-1-yl)benzoxazole-4-carboxamide Hydrochloride], the Ki was determined as 11.3 nM.

For the compound `COc1ccccc1Nc1nc2c(C(=O)N[C@H]3C[C@H]4CCC[C@@H](C3)N4C)cccc2o1` [Example 64, Endo-N-(9-methyl-9-azabicyclo[3.3.1]nonan-3-yl)-2-(2-methoxyphenylamino)benzoxazole-4-carboxamide Hydrochloride], the inhibitory constant (Ki) is 16.2 nM.

Consider `CN1[C@@H]2CCC[C@H]1C[C@@H](NC(=O)c1cccc3oc(N4CCOCC4)nc13)C2` [Example 9, Endo-N-(9-Methyl-9-azabicyclo[3.3.1]non-3-yl)-2-morpholinobenzoxazole-4-carboxamide Hydrochloride], for which the Ki was 42 nM.

Turning to `COCCNc1nc2c(C(=O)N[C@H]3C[C@H]4CCC[C@@H](C3)N4C)cccc2o1` [Example 38, Endo-N-(9-Methyl-9-azabicyclo[3.3.1]nonan-3-yl)-2-(2-methoxyethylamino)benzoxazole-4-carboxamide Hydrochloride], the Ki was found to be 7.5 nM.

Take `CN1[C@@H]2CCC[C@H]1C[C@@H](NC(=O)c1cccc3oc(N4CCN(c5ncccn5)CC4)nc13)C2` [Example 42, Endo-N-(9-Methyl-9-azabicyclo[3.3.1]nonan-3-yl)-2-(4-(pyrimidin-2-yl)piperazin-1-yl)benzoxazole-4-carboxamide Hydrochloride]: the Ki came out at 11 nM.

Take `CC(C)C[C@H]1CN(Cc2ccccc2)CCN1c1nc2c(C(=O)NC3CC4CCCC(C3)N4C)cccc2o1` (stereo partly drawn) [Example 71, Endo-N-(9-Methyl-9-azabicyclo[3.3.1]nonan-3-yl)-2-((2S)-2-isobutyl-4-benzylpiperazin-1-yl)benzoxazole-4-carboxamide Hydrochloride]: the Ki turned out to be 48.6 nM.

As for `CC(C)C[C@H]1COCCN1c1nc2c(C(=O)NC3CC4CCCC(C3)N4C)cccc2o1` (stereo partly drawn) [Example 67, Endo-N-(9-Methyl-9-azabicyclo[3.3.1]nonan-3-yl)-2-((S)-3-isobutylmorpholino)benzoxazole-4-carboxamide Hydrochloride], the Ki was found to be 3.9 nM.

Take `Cc1cc(C(=O)NC2CN3CCC2CC3)c2nc(N)oc2c1` [Example 127, (S)—N-(quinulidin-8-yl)-2-amino-6-methylbenzoxazole-4-carboxamide Hydrochloride]: the Ki was found to be 20 nM.

As to `C[C@H]1CN(C)CCN1c1nc2c(C(=O)NC3CC4CCCC(C3)N4C)cc(Cl)cc2o1` (stereo partly drawn) [Example 63, Endo-N-(9-methyl-9-azabicyclo[3.3.1]nonan-3-yl)-6-chloro-2-((S-2,4-dimethylpiperazin-1-yl)benzoxazole-4-carboxamide Hydrochloride], the Ki was determined as 16.1 nM.

In the case of `CC[C@H]1COC[C@H](C)N1c1nc2c(C(=O)NC3CC4CCCC(C3)N4C)cccc2o1` (stereo partly drawn) [Example 87, Endo-N-(9-Methyl-9-azabicyclo[3.3.1]nonan-3-yl)-2-((3 S,5S)-3-ethyl-5-methylmorpholino)benzoxazole-4-carboxamide Hydrochloride], the Ki came to 1 nM.

Take `C[C@H]1COC[C@H](C)N1c1nc2c(C(=O)N[C@@H]3CN4CCC3CC4)cccc2o1` [Example 90, (S)—N-(quinuclidine-8-yl)-2-((3S,5S)-3,5-Dimethylmorpholino)benzoxazole-4-carboxamide Hydrochloride]: the Ki came out at 6.8 nM.

As to `CN1[C@@H]2CCC[C@H]1C[C@@H](NC(=O)c1cccc3oc(=O)[nH]c13)C2` [Example 56, Endo-N-(9-Methyl-9-azabicyclo[3.3.1]nonan-3-yl)-2-oxo-2,3-dihydrobenzoxazole-4-carboxamide Hydrochloride], the Ki came to 72 nM.

For the compound `CC1CNCCN1c1nc2c(C(=O)NC3CN4CCC3CC4)cccc2o1` [Example 26, (S)—N-(quinuclidine-8-yl)-2-(2-methylpiperazin-1-yl)benzoxazole-4-carboxamide Dihydrochloride], the Ki worked out at 241 nM.

`CN(C)CCNc1nc2c(C(=O)N[C@H]3C[C@H]4CCC[C@@H](C3)N4C)cccc2o1` [Example 32, Endo-N-(9-Methyl-9-azabicyclo[3.3.1]nonan-3-yl)-2-(2-(dimethylamino)ethylamino)benzoxazole-4-carboxamide Trihydrochloride]: the Ki was found to be 234 nM.

Take `CC(C)COC(=O)N1C[C@H](C)N(c2nc3c(C(=O)NC4CC5CCCC(C4)N5C)cccc3o2)[C@@H](C)C1` (stereo partly drawn) [Example 138, Endo-N-(9-methyl-9-azabicyclo[3.3.1]nonan-3-yl)-2-((2S,6S)-4-(isobutoxycarbonyl)-2,6-dimethylpiperazin-1-yl)benzoxazole-4-carboxamide Hydrochloride]: the Ki came out at 2.4 nM.

As for `CCNc1nc2c(C(=O)N[C@H]3C[C@H]4CCC[C@@H](C3)N4C)cccc2o1` [Example 105, Hydrochloride], the Ki was found to be 3.3 nM.

As to `COC1CCN(c2nc3c(C(=O)N[C@H]4C[C@H]5CCC[C@@H](C4)N5C)cccc3o2)CC1` [Example 89, Endo-N-(9-Methyl-9-azabicyclo[3.3.1]nonan-3-yl)-2-(4-methoxypiperidin-1-yl)benzoxazole-4-carboxamide Hydrochloride], the Ki is 36.9 nM.

Turning to `C[C@H]1CN(Cc2ccccc2)C(=O)[C@H](C)N1c1nc2c(C(=O)N[C@@H]3CN4CCC3CC4)cccc2o1` [Example 142, (S)—N-(quinuclidine-8-yl) 2-((2S,6S)-4-benzyl-2,6-dimethyl-3-oxopiperazine-1-yl)benzoxazole-4-carboxamide Hydrochloride], the inhibitory constant (Ki) was determined as 11.5 nM.

In the case of `CN1[C@@H]2CCC[C@H]1C[C@@H](NC(=O)c1cccc3oc(NCCCO)nc13)C2` [Example 40, Endo-N-(9-Methyl-9-azabicyclo[3.3.1]nonan-3-yl)-2-(3-hydroxypropylamino)benzoxazole-4-carboxamide Hydrochloride], the Ki is 7.8 nM.

Turning to `CN1[C@@H]2CCC[C@H]1C[C@@H](NC(=O)c1cccc3oc(N4CCNCC45CCCC5)nc13)C2` [Example 100, Endo-N-(9-Methyl-9-azabicyclo[3.3.1]nonan-3-yl)-2-(6,9-diazaspiro[4.5]decan-6-yl)benzoxazole-4-carboxamide Hydrochloride], the Ki came out at 11.4 nM.

Regarding `C[C@H]1CNCCN1c1nc2c(C(=O)NC3CC4CCCC(C3)N4C)cc(Cl)cc2o1` (stereo partly drawn) [Example 57, Endo-N-(9-methyl-9-azabicyclo[3.3.1]nonan-3-yl)-6-chloro-2-((S)-2-methylpiperazin-1-yl)benzoxazole-4-carboxamide Hydrochloride], the Ki came to 11.4 nM.
